Source: ChEMBL document CHEMBL1201862, “PubChem BioAssay data set” (2004)
Activity calls are given as the source filed them. Rule as the data show it: actives have a measured IC50 and inactives only a lower limit.

Molecular target: Envelope glycoprotein gp160 (Human immunodeficiency virus 1, UniProt Q6QLK5)
Experiment: inhibitors of HIV fusion peptide binding, primary screen, biochemical, uHTS, fluorescence dequenching (AID 1986)

Envelope glycoprotein gp160, sequence (Q6QLK5 whole entry, the tested form may be a part): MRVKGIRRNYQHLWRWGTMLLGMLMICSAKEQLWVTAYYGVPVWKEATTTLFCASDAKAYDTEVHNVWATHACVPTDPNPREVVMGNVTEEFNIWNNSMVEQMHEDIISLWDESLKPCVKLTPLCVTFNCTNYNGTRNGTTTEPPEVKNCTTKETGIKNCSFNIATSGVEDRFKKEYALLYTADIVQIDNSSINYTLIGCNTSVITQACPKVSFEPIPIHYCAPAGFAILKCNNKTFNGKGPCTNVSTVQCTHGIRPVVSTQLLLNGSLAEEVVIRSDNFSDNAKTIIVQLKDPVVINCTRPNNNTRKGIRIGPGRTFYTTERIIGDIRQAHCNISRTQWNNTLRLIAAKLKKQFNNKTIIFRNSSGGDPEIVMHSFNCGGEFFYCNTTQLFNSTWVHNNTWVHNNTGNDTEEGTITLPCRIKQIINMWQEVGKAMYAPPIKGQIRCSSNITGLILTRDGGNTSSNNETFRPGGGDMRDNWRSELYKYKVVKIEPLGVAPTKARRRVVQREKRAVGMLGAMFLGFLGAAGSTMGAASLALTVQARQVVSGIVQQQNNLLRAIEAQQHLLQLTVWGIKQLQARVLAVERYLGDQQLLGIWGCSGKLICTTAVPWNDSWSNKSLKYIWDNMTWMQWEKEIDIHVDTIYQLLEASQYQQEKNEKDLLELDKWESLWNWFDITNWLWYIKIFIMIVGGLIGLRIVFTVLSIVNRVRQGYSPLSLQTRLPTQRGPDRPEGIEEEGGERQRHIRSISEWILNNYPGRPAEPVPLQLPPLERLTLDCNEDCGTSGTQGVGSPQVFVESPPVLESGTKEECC

Row | Structure (SMILES) | IC50
1 | CCCCN1C(=O)/C(=C/C=C/c2ccco2)C(=O)NC1=S | 5.14 µM (active)
2 | CC(/C=C1\SC(=S)N(CCCC(=O)Nc2ccc(C(=O)O)cc2)C1=O)=C\c1ccccc1 | 17.2 µM (active)
